Source: patent US20070072874A1, “Aminoheteroaryl compounds as protein kinase inhibitors” (Sugen, Inc., priority 2003, published 2007)

target: T1, HGFR (c-MET) (Homo sapiens, UniProt P08581); assay: HGFR continuous-coupled spectrophotometric assay (Ki and % inhibition); type: biochemical; details: Table 3, column 'Ki(μM) or I(%)': values without % sign; read-out: Ki
T1 construct: purchased Upstate 14-526
T1 sequence (P08581 25-1390): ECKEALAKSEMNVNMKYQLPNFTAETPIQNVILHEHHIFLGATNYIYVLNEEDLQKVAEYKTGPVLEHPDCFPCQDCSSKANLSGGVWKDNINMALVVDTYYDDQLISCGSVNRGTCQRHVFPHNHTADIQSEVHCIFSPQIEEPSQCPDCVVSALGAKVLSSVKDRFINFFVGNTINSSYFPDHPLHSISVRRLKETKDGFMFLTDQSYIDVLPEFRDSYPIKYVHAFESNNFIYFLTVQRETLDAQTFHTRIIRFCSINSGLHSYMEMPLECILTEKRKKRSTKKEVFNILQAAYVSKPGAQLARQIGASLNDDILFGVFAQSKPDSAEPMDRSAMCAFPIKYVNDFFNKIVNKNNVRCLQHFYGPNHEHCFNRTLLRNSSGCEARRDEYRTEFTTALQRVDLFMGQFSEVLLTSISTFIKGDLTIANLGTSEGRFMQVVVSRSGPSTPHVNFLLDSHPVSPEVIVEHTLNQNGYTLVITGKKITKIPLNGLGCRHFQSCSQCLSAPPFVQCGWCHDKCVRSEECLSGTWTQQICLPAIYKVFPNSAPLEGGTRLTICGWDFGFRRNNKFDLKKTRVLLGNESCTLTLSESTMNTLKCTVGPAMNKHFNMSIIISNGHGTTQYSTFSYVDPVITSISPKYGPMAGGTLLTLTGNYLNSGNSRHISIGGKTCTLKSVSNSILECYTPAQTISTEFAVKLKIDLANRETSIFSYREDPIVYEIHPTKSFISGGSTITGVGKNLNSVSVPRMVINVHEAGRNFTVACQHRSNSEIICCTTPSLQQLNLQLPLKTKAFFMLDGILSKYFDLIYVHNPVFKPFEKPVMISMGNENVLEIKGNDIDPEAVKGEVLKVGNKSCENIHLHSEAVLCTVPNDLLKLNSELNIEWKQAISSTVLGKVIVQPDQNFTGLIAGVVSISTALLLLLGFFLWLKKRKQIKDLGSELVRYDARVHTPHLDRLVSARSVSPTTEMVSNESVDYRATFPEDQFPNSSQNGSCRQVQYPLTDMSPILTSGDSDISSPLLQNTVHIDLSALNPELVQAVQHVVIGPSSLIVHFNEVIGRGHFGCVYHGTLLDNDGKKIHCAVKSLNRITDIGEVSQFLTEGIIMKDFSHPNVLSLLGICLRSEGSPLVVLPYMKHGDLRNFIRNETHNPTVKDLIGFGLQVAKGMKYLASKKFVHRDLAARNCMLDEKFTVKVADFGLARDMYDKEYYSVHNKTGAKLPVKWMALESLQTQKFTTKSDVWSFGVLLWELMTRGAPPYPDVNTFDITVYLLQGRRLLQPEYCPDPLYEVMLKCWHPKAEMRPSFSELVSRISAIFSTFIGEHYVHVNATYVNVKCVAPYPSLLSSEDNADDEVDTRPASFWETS

Row | Ki | SMILES
1 | 0.554 µM | CC(Oc1cc(-c2ccc(CN3CCOCC3)cc2)cnc1N)c1c(Cl)ccc(F)c1Cl (stereo not shown) [Example I-572, 3-[1-(2,6-Dichloro-3-fluoro-phenyl)-ethoxy]-(4-morpholin-4-ylmethyl-phenyl)-pyridin-2-ylamine]
2 | 1.53 µM | Nc1ncc(-c2ccc(C(=O)N3CCC(N4CCCC4)CC3)cc2)cc1OCc1ccc(-c2ccccc2)cc1 [Example I-651]

The remaining lines, values behind:

Row | SMILES | Ki
3 | CCN1CCN(C(=O)c2ccc(-c3cnc(N)c(OC(C)c4c(Cl)ccc(F)c4Cl)c3)cc2)CC1 (stereo not shown) [Example I-633, (4-{6-Amino-5-[1-(2,6-dichloro-3-fluoro-phenyl)-ethoxy]-pyridin-3-yl}-phenyl)-(4-ethyl-piperazin-1-yl)-methanone] | 0.0472 µM
4 | CC(Oc1cc(-c2ccc(CN3C[C@@H](C)O[C@@H](C)C3)cc2)cnc1N)c1c(Cl)ccc(F)c1Cl (stereo partly drawn) [Example I-571, 3-[1-(2,6-Dichloro-3-fluoro-phenyl)-ethoxy]-5-(4-((2R,6S)-2,6-dimethyl-morpholin-4-ylmethyl)-phenyl]-pyridin-2-ylamine] | 0.27 µM

same assay, conditions: at 50 nM; Table 5, library products of procedure 40, crude reaction stock; read-out: % inhibition (percent c-MET inhibition)

Row | inhibition at 0.05 µM | SMILES
5 | 69% | CC(Oc1cc(-c2ccc(C(=O)N(C)CCO)cc2)cnc1N)c1c(Cl)ccc(F)c1Cl [Example L-104]
6 | 63% | CC(Oc1cc(-c2ccc(C(=O)N3CCCCC3CCO)cc2)cnc1N)c1c(Cl)ccc(F)c1Cl [Example L-47]
7 | 64% | CC(C)OCCNC(=O)c1ccc(-c2cnc(N)c(OC(C)c3c(Cl)ccc(F)c3Cl)c2)cc1 [Example L-140]

same assay, conditions: at 1 μM; Table 8, library products of procedure 43, crude reaction stock; read-out: % inhibition (percent c-MET inhibition)

Row | inhibition at 1 µM | SMILES
8 | 17% | CC1CN(C(=O)c2ccc(-c3cnc(N)c(COc4cc(F)ccc4C(F)(F)F)c3)cc2)CC(C)N1 (stereo not shown)
9 | 27% | CC1CN(C(=O)c2ccc(-c3cnc(N)c(OCc4nc5cc(C(F)(F)F)ccc5s4)c3)cc2)CC(C)N1 (stereo not shown)

same assay, conditions: cells marked "Ki"; read-out: Ki (printed in the Met IC50 column)

Row | Ki | SMILES
10 | 0.016 µM | CC(Oc1cc(-c2ccc(OCC(=O)N3CCN(C(=O)OC(C)(C)C)CC3)cc2)cnc1N)c1c(Cl)ccc(F)c1Cl (stereo not shown) [Example I-479, 4-[2-(4-{8-Amino-5-[1-(2,6-dichloro-3-fluoro-phenyl)-ethoxy]-pyridin-3-yl}-phenoxy)-acetyl]-piperazine-1-carboxylic acid tert-butyl ester]

same assay, conditions: read-out: % (inhibition) at 1 μM (printed in the Met IC50 column), at 1 μM

Row | inhibition at 1 µM | SMILES
11 | 9% | Cc1ccc(S(=O)(=O)NCc2cnc(N)c(OC(C)c3c(Cl)ccc(F)c3Cl)c2)cc1 (stereo not shown) [Example I-460, N-{6-Amino-5-[1-(2,6-dichloro-3-fluoro-phenyl)-ethoxy]-pyridin-3-ylmethyl}-4-methyl-benzenesulfonamide]
12 | 15% | CC(Oc1cc(-c2ccc(C(=O)N3CCC[C@H]3CN3CCCC3)cc2)cnc1N)c1cccc(F)c1C(F)(F)F (stereo partly drawn) [Example I-445, (4-{6-Amino-5-[1-(3-fluoro-2-trifluoromethyl-phenyl)-ethoxy]-pyuidin-3-yl}-phenyl)-((S)-2-pyrrolidin-1-ylmethyl-pyrrolidin-1-yl)-methanone]
13 | 8% | COc1c(F)cccc1COc1cc(Br)cnc1N [Example I-468, 5-Bromo-3-(3-fluoro-2-methoxy-benzyloxy)-pyridin-2-ylamine]
14 | 8% | CC(Oc1cc(C#N)cnc1N)c1c(Cl)ccc(C#N)c1Cl (stereo not shown) [Example I-455, 6-Amino-5-[1-(2,6-dichloro-3-cyano-phenyl)-ethoxy]-nicotinonitrile]
15 | 1% | COc1c(F)cccc1C(C)Oc1cc(-c2ccc(C(=O)N3C[C@@H](C)N[C@@H](C)C3)cc2)cnc1N (stereo partly shown) [Example I-471]
16 | 10% | CC(Oc1cc(-c2ccc(C(=O)N3C[C@@H](C)N[C@@H](C)C3)cc2)cnc1N)c1cccc(F)c1C(F)(F)F (stereo partly drawn) [Example I-444, (4-{6-Amino-5-[1-(3-fluoro-2-trinuommethyl-phenyl)-ethoxy]-pyridin-3-yl}-phenyl)-((3R,5S)-3,5-dimethyl-piperazin-1-yl)-methanone]
17 | 7% | CC(Oc1cc(-c2ccc(C(=O)NCCN3CCCC3)cc2)cnc1N)c1cccc(F)c1C(F)(F)F (stereo not shown) [Example I-450, 4-{6-Amino-5-[1-(3-fluoro-2-trifluoromethyl-phenyl)-ethoxy]-pyridin-3-yl}-N-(2-pyrrolidin-1-yl-ethyl)-benzamide]
18 | 7% | COc1c(F)cccc1C(C)Oc1cc(Br)cnc1N (stereo not shown) [Example I-469, 5-Bromo-3-[1-(3-fluoro-2-methoxy-phenyl)-ethoxy]-pyridin-2-ylamine]
19 | 10% | CC(Oc1cc(-c2ccc(C(=O)NCCCN3CCOCC3)cc2)cnc1N)c1cccc(F)c1C(F)(F)F (stereo not shown) [Example I-453, 4-{6-Amino-5-[1-(3-fluoro-2-trifluoromethyl-phenyl)-ethoxy]-pyridin-3-yl}-N-(3-morpholin-4-yl-propyl)-benzamide]
20 | 2% | CC(Oc1cc([C@H](O)CO)cnc1N)c1c(Cl)ccc(F)c1Cl (stereo partly drawn) [Example I-462, (S)-1-{6 Amino-5-[1-(2,6-dichloro-3-fluoro-phenyl)-ethoxy]-pyridin-3-yl}-ethane-1,2-diol]
21 | 16% | CC(Oc1cc(-c2ccc(C(=O)N3CCN(C)CC3)cc2)cnc1N)c1cccc(F)c1C(F)(F)F (stereo not shown) [Example I-442, (4-{6-Amino-5-[1-(3-fluoro-2-trifluoromethyl-phenyl)-ethoxy]-pyridin-3-yl}-phenyl)-(4-methyl-piperazin-1-yl)-methanone]
22 | 13% | CC(Oc1cc(-c2ccc(C(=O)N3CCC(N4CCCC4)CC3)cc2)cnc1N)c1cccc(F)c1C(F)(F)F (stereo not shown) [Example I-443, (4-{6-Amino-5-[1-(3-fluoro-2-trifluoromethyl-phenyl)-ethoxy]-pyridin-3-yl}-phenyl)-(4-pyrrolidin-1-yl-piperidin-1yl)-methanone]
23 | 3% | COc1c(F)cccc1COc1cc(-c2ccc(C(=O)N3C[C@@H](C)N[C@@H](C)C3)cc2)cnc1N [Example I-470, (4-{6-Amino-5-(3-fluoro-2-methoxy-benzyloxy)-pyridin-3-yl]-phenyl}-((3R,5S)-3,5-dimethyl-piperazin-1-yl)-methanone]

The next lines start with the molecule.

Row | SMILES | inhibition at 1 µM
24 | CC(Oc1cc(CNS(C)(=O)=O)cnc1N)c1c(Cl)ccc(F)c1Cl (stereo not shown) [Example I-458, N-{6-Amino-5-[1-(2,6-dichloro-3-fluorophenyl)-ethoxy]-pyridin-3-ylmethyl}-methanesulfonamide] | 0%
25 | CC(Oc1cc(CNC(=O)N2CCC[C@@H]2CN2CCCC2)cnc1N)c1c(Cl)ccc(F)c1Cl (stereo partly drawn) [Example I-457, (R)-2-Pyrrolidin-1-ylmethyl-pyrrolidine-1-carboxylic acid {6-amino-5-[1-(2,6-dichloro-3-fluoro-phenyl)-ethoxy]-pyridin-3-ylmethyl}-amide] | 1%
26 | CC(Oc1cc(-c2ccc(C(=O)NCCCN3CCCC3)cc2)cnc1N)c1cccc(F)c1C(F)(F)F (stereo not shown) [Example I-452, 4-{6-Amino-5-[1-(3-fluoro-2-trifluoromethyl-phenyl)-ethoxy]-pyridin-3-yl}-N-(3-pyrrolidin-1-yl-propyl)-benzamide] | 3%
27 | CC(Oc1cc(-c2ccc(C(=O)N3CCC[C@@H]3CN3CCCC3)cc2)cnc1N)c1cccc(F)c1C(F)(F)F (stereo partly drawn) [Example I-446, (4-{6 Amino-5-[1-(3-fluoro-2-trifluoromethyl-phenyl)-ethoxy]pyridin-3-yl}-phenyl)-((R) 2 pyrrolidin-1-ylmethyl-pyrrolidin-1-yl)-methanone] | 12%
28 | CC(Oc1cc(-c2ccc(C(=O)NC3CCN(C)CC3)cc2)cnc1N)c1cccc(F)c1C(F)(F)F (stereo not shown) [Example I-449, 4-{6-Amino-5-[1-(3-fluoro-2-trifluoromethyl-phenyl)-ethoxy]pyridin-3-yl}-N-[1-methylpiperidin-4-yl)-benzamide] | 12%
29 | CC(Oc1cc([C@@H](O)CO)cnc1N)c1c(Cl)ccc(F)c1Cl (stereo partly drawn) [Example I-463, (R)-1-{6-Amino-5-[1-(2,6-dichloro-3-fluoro-phenyl)-ethoxy]-pyridin-3-yl}-ethane-1,2-diol] | 2%
30 | CC(Oc1cc(CN)cnc1N)c1c(Cl)ccc(F)c1Cl (stereo not shown) [Example I-456, 5-Aminomethyl-3-[1-(2,6-dichloro-3-fluoro-phenyl)-ethoxy]-pyridin-2-ylamine] | 0%
31 | CC(Oc1cc(Br)cnc1N)c1cccc(F)c1Cl (stereo not shown) [Example I-486, Bromo-3-[1-(2-chloro-3-fluoro-phenyl)-ethoxy]-pyridin-2-ylamine] | 0%
32 | CC(Oc1cc(-c2ccc(C(=O)NCCN3CCOCC3)cc2)cnc1N)c1cccc(F)c1C(F)(F)F (stereo not shown) [Example I-451, 4-{6-Amino-5-[1-(3-fluoro-2-trifluoromethyl-phenyl)-ethoxy]-pyridin-3-yl}-N-(2-morpholin-4-yl-ethyl)-benzamide] | 12%
33 | CC(=O)NCc1cnc(N)c(OC(C)c2c(Cl)ccc(F)c2Cl)c1 (stereo not shown) [Example I-459, N-{6-Amino-5-[1-(2,6-dichloro-3-fluoro-phenyl)-ethoxy]-pyridin-3-ylmethyl}-acetamide] | 2%

target: T2, GST fusion protein containing the Met kinase domain (Homo sapiens, UniProt P08581); assay: MET transphosphorylation assay (ELISA, poly(glu-tyr) substrate); type: biochemical; details: not given
T2 construct: Purified GST fusion protein containing the Met kinase domain, SUGEN, Inc
T2 sequence (P08581 1078-1345 limits assumed): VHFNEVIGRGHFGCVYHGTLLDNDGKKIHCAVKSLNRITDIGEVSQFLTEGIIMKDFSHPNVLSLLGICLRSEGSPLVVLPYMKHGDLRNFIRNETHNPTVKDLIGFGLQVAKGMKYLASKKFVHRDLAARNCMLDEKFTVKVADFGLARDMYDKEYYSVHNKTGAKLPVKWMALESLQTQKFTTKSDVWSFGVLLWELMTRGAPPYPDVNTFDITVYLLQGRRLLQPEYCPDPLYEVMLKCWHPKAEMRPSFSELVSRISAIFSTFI

Row | IC50 | SMILES
34 | < 9.1 nM | CC(Oc1cc(C#CCNC(=O)CN2CCCC2)cnc1N)c1c(Cl)ccc(F)c1Cl (stereo not shown) [Example I-426, N-(3-{6-Amino-5-[1-(2,6-dichloro-3-fluoro-phenyl)-ynyl)-2-pridin-1-y-ehoxy]-pyridin-3-yf}-prop-2-acetamide]
35 | 790 nM | CC(Oc1cc(-c2ccc(OCCC3CCCN3C)cc2)cnc1N)c1c(Cl)ccc(F)c1Cl (stereo not shown) [Example I-356, 3-[1-(2,6-Dichloro-3-fluoro-phenyl)-ethoxy]-5-{4-(2-[1-methyl-pyrrolidin-2-yl)-ethoxy]-phenyl)-pyridin-2-ylamine]
36 | 131 nM | CC(Oc1cc(-c2ccc(C(=O)N3CCN(C)CC3)cn2)cnc1N)c1c(F)ccc(F)c1Cl (stereo not shown) [Example I-517, {6′-Amino-5′-[1-(2-chloro-3,6-difluoro-phenyl)-ethoxy]-[2,3′]bipyridinyl-5-yl)-(4-methyl-piperazin-1-yl)-methanone]

same assay, conditions: Table 1; several values in one cell are separated by /

Row | IC50 | SMILES
37 | > 20000 nM | Nc1ncc(Br)cc1OCc1c(F)cccc1Cl [I(e), 5-Bromo-3-(2-chloro-6-fluoro-benzyloxy)-pyridin-2-ylamine]
